Results as given in patent publication US20210380930A1, “METHODS, APPARATUS AND KITS FOR BACTERIAL CELL LYSIS” (TECHNISCHE UNIVERSITÄT WIEN, priority 2018, published 2021).
Where two headings read alike, the source gives them in different places.

Tested on: Enterococcus faecalis type strain NCTC 775
Test: Cell lysis experiments with ILs, released DNA quantified by ENT-qPCR
Format: cell-based

Row | SMILES | 23S rRNA gene copies in 2.5 μl of the DNA extracts | cell lysis efficiency with varying IL concentrations (IL from 90% (w/v) to 10% (w/v), same extraction procedure) | cell lysis efficiency with varying IL concentrations
1 | CC(=O)[O-].CCn1cc[n+](C)c1 [[C2mim]OAc, 1-Ethyl-3-methylimidazollum acetate] | ~6.48±0.02 | almost steadily decreased with its respective concentration | 
2 | CCCCCC(=O)[O-].C[N+](C)(C)CCO [[Cho]Hex, Choline hexanoate] | ~6.49±0.11 |  | slightly improved towards a concentration of 50% (w/v), only decreasing with lower concentrations of 30% (w/v) and 10% (w/v)
